Data on 34 compounds can be found in US11919918B2, “P2X3 andor P2X2/3 receptor antagonist, pharmaceutical composition comprising same, and use thereof” (BEIJING TIDE PHARMACEUTICAL CO., LTD., priority 2017, dated 2024).

One test addresses human P2X2/3 receptor (Homo sapiens (Human), UniProt P56373+Q9UBL9). The test can be described thus: Inhibitory activity on human P2X2/3 receptor (calcium 6 dye FLIPR assay, agonist α,β-MeATP). The conditions noted are these: HEK293-P2X2/3 stably expressing cell line, FLIPR Tetra. In kind it is cell-based. The protocol:
(§1) Biological Assay: Determination of the Inhibitory Activity of the Compounds on Human P2X3 and P2X2/3 Receptors
(§2) Cells were seeded into a poly-D-lysine-coated 384-well cell culture plate (Corning) at a density of 11,000 cells/well/25 μL of cell inoculation medium, and were cultured in a cell incubator overnight. On the day of the test, the calcium 6 dye was diluted to a 2× concentration with a assay buffer, 25 μL of the 2× calcium 6 dye was added to the 384-well cell culture plate, which was incubated at 37° C. for 2 hours, and then placed at room temperature for further use. The test compound and the agonist, α,β-MeATP were diluted to a 7× concentration with the assay buffer, 10 μL of the 7× test compound was added to the 384-well cell culture plate, which was incubated at room temperature for 15 minutes, and 10 μL of the 7× α,β-MeATP was transferred into the 384-well cell culture plate. The data were measured and analyzed using FLIPR Tetra, and the half inhibitory concentration (IC50) of the test compound on P2X3 and P2X2/3 receptors was calculated with the GraphPad Prism four-parameter equation.
(§3) Cell lines: human embryonic kidney cells HEK293-P2X3 and HEK293-P2X2/3 stably expressing cell lines;
(§4) Complete cell culture medium: DMEM High Glucose (Life Technology), which contained 10% fetal bovine serum, 4 mM GlutaMAX, 1% penicillin-streptomycin, and 350 μg/mL G418;
(§5) Cell inoculation medium: DMEM High Glucose (Life Technology), which contained 2% fetal bovine serum, and 4 mM GlutaMAX;
(§6) Cell culture conditions: 37° C., 5% CO2;
(§7) Assay buffer: HBSS (containing calcium and magnesium ions), which contained 20 mM HEPES;
(§8) Detection equipment: FLIPR Tetra (Molecular Devices);

Another test has as its target human P2X3 receptor (Homo sapiens (Human), UniProt P56373). The test can be described thus: Inhibitory activity on human P2X3 receptor (calcium 6 dye FLIPR assay, agonist α,β-MeATP). In kind it is cell-based. As to conditions: HEK293-P2X3 stably expressing cell line, FLIPR Tetra. As for the experimental part: as §1, §2, §3, §4, §5, §6, §7, §8

Sequence of human P2X2/3 receptor (Q9UBL9 whole entry): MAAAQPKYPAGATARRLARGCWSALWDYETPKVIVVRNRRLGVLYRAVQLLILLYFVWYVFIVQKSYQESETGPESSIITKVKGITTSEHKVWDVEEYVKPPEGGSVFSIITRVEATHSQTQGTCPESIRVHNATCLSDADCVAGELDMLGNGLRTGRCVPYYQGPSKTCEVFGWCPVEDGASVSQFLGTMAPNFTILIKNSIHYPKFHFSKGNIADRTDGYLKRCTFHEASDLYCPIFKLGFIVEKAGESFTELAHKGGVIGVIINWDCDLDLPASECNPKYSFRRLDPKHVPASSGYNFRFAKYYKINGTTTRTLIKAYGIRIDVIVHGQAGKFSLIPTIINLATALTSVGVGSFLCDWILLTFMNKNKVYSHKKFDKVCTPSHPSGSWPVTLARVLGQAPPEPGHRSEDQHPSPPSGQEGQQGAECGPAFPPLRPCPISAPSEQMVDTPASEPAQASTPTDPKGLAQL
Sequence of human P2X2/3 receptor (P56373 whole entry): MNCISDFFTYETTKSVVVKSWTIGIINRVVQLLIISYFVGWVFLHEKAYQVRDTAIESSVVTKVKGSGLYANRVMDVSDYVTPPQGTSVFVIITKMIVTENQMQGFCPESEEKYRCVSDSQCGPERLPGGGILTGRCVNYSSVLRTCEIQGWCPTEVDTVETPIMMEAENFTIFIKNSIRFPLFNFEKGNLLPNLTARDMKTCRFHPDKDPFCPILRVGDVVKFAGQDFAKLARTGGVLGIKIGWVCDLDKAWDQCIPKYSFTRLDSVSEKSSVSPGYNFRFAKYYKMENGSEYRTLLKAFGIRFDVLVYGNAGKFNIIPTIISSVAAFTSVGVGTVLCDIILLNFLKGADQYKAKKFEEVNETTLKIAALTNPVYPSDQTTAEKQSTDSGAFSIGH
Sequence of human P2X3 receptor (P56373 whole entry): as above

In general, IC50 refers to the point on the concentration scale where inhibition reaches its midpoint. Turning to `C=C(C)c1cnc(OC)cc1Oc1cnc(N)nc1N` [Compound C164, 5-((2-methoxy-5-(prop-1-en-2-yl)pyridin-4-yl)oxy) pyrimidine-2,4-diamine], the IC50 at human P2X2/3 receptor worked out at 71 nM; at human P2X3 receptor, 46 nM.
For `CC(C)c1cnc(Br)cc1Oc1cnc(N)nc1NCCN` [Compound C199, N^4-(2-aminoethyl)-5-((2-bromo-5-isopropylpyridin-4-yl)oxy)pyrimidine-2,4-diamine], in that order: 333 nM and 186 nM.
For `COc1cc(Oc2cnc(N)nc2N)c(C2CC2)cn1` [Compound C33, 5-((5-cyclopropyl-2-methoxypyridin-4-yl)oxy) pyrimidine-2,4-diamine], in that order: 262 nM and 238 nM.
Consider `CC(C)c1cnc(-c2ccccc2)cc1Oc1cnc(N)nc1N` [Compound C13], for which the values for the IC50 at human P2X2/3 receptor and at human P2X3 receptor were 599 nM and 355 nM, respectively.
Consider `CC(C)c1cnc([Si](C)(C)C)cc1Oc1cnc(N)nc1N` [Compound C133, 5-((5-isopropyl-2-(trimethylsilyl)pyridin-4-yl)oxy)pyrimidine-2,4-diamine], for which the IC50 at human P2X2/3 receptor came to 770 nM; at human P2X3 receptor, 1440 nM.
For `CC(C)CNc1nc(N)ncc1Oc1cc(C2CC2)ncc1C(C)C` [Compound C194, 5-((2-cyclopropyl-5-isopropyl-pyridin-4-yl)oxy)-N^4-isobutyl-pyrimidine-2,4-diamine], in that order: 446 nM and 322 nM.
For `CSc1cc(Oc2cnc(N)nc2N)c(C(C)C)cn1` [Compound C20, 5-((5-isopropyl-2-(methylthio)pyridin-4-yl)oxy)pyrimidine-2,4-diamine], in that order: 75.7 nM and 44.4 nM.
For `CC(C)c1cnc(Br)cc1Oc1cnc(NCCO)nc1NCCO` [Compound C226, 2,2′-((5-((2-bromo-5-isopropylpyridin-4-yl)oxy)pyrimidin-2,4-diyl)bis(azanediyl))diethanol], in that order: 155 nM and 115 nM.
On to `CC(C)c1cnc(Br)cc1Oc1cnc(NCC(O)CO)nc1N` (centres unmarked) [Compound C235, 3-((4-amino-5-((2-bromo-5-isopropyl-pyridin-4-yl)oxy)pyrimidin-2-yl)amino) propane-1,2-diol], for which the IC50 on human P2X2/3 receptor worked out at 145 nM; at human P2X3 receptor, 90 nM.
For `CC(C)c1cnc(Br)cc1Oc1cnc(NC2CC2)nc1N` [Compound C238, 5-((2-bromo-5-isopropylpyridin-4-yl)oxy)-N^2-cyclopropyl-pyrimidine-2,4-diamine], in that order: 206 nM and 104 nM.
For `CC(C)c1ncc(Cl)cc1Oc1cnc(N)nc1N` [Reference Compound C10, 5-((5-chloro-2-isopropylpyridin-3-yl)oxy)pyrimidine-2,4-diamine, reference compound], in that order: 1820 nM and 2510 nM.
For `C#Cc1cc(Oc2cnc(N)nc2N)c(C(C)C)cn1` [Compound C66, 5-((2-ethynyl-5-isopropylpyridin-4-yl)oxy)pyrimidine-2,4-diamine], in that order: 154 nM and 85 nM.
With `CNc1ncc(Oc2cc(Br)ncc2C(C)C)c(N)n1` [Compound C237, 5-((2-bromo-5-isopropylpyridin-4-yl)oxy)-N^2-methylpyrimidine-2,4-diamine], the IC50 at human P2X2/3 receptor came to 781 nM; at human P2X3 receptor, 363 nM.
The matching figures for `C#Cc1cc(Oc2cnc(N)nc2NC)c(C(C)C)cn1` [Compound C213, 5-((2-ethynyl-5-isopropylpyridin-4-yl)oxy)-N^4-methylpyrimidine-2,4-diamine]: 295 nM and 112 nM.
As to `CC(C)c1cnc(Br)cc1Oc1cnc(N)nc1NC(CO)CO` [Compound C153, 2-((2-amino-5-((2-bromo-5-isopropylpyridin-4-yl)oxy)pyrimidin-4-yl)amino) propane-1,3-diol], the IC50 stood at 96 nM at human P2X2/3 receptor and 83 nM at human P2X3 receptor.
The matching figures for `CC(C)c1cnc(Br)cc1Oc1cnc(N)nc1NCCO` [Compound C175, 2-((2-amino-5-((2-bromo-5-isopropylpyridin-4-yl)oxy)pyrimidin-4-yl)amino)ethanol.]: 141 nM and 108 nM.
Take `COc1cc(Oc2cnc(N)nc2N)c(C(C)C)cn1` [Compound C4, 5-((5-isopropyl-2-methoxypyridin-4-yl)oxy)pyrimidine-2,4-diamine]: the figures for the IC50 on human P2X2/3 receptor and on human P2X3 receptor were 158 nM and 102 nM, respectively.
The matching figures for `CC(C)c1cnc(Cl)cc1Sc1cnc(N)nc1N` [C84]: 742 nM and 536 nM.
The matching figures for `CC(C)Nc1ncc(Oc2cc(Br)ncc2C(C)C)c(N)n1` [Compound C239, 5-((2-bromo-5-isopropylpyridin-4-yl)oxy)-N^2-isopropyl-pyrimidine-2,4-diamine]: 131 nM and 107 nM.
The matching figures for `CC(C)c1cnc(C#Cc2ccc(C#N)cc2)cc1Oc1cnc(N)nc1N` [Compound C137]: 567 nM and 503 nM.
Consider `CCSc1cc(Oc2cnc(N)nc2N)c(C(C)C)cn1` [Compound C117, 5-((2-(ethylthio)-5-isopropylpyridin-4-yl)oxy)pyrimidine-2,4-diamine], for which the IC50 was determined as 487 nM at human P2X2/3 receptor and 151 nM at human P2X3 receptor.
For `CC(C)c1cnc(I)cc1Oc1cnc(N)nc1N` [Compound C12, 5-((2-iodo-5-isopropylpyridin-4-yl)oxy)pyrimidine-2,4-diamine], in that order: 56.7 nM and 73.6 nM.
The matching figures for `CSc1cc(Oc2cnc(N)nc2NCCN(C)C)c(C(C)C)cn1` [Compound C72, N^4-(2-(dimethylamino)ethyl)-5-((5-isopropyl-2-(methylthio)pyridin-4-yl)oxy)pyrimidine-2,4-diamine]: 89 nM and 127 nM.
For `CC(C)c1cnc(C#Cc2ccncc2)cc1Oc1cnc(N)nc1N` [Compound C151, 5-((5-isopropyl-2-(pyridin-4-ylethynyl)pyridin-4-yl)oxy)pyrimidine-2,4-diamine], in that order: 961 nM and 590 nM.
In the case of `CC(C)c1cnc(Br)cc1Oc1cnc(NC(CO)CO)nc1N` [Compound C111, 2-((4-amino-5-((2-bromo-5-isopropyl-pyridin-4-yl)oxy)pyrimidin-2-yl)amino) propane-1,3-diol], the IC50 was determined as 129 nM on human P2X2/3 receptor and 104 nM at human P2X3 receptor.
For `CC(C)c1cnc(C2CC2)cc1Oc1cnc(N)nc1N` [Compound C52, 5-((2-cyclopropyl-5-isopropylpyridin-4-yl)oxy)pyrimidine-2,4-diamine], in that order: 589 nM and 147 nM.
Regarding `CC(C)c1cnc(C#Cc2cccc3cccnc23)cc1Oc1cnc(N)nc1N` [Compound C149, 5-((5-isopropyl-2-(quinolin-8-ylethynyl)pyridin-4-yl)oxy)pyrimidine-2,4-diamine], the IC50 on human P2X2/3 receptor came to 266 nM; on human P2X3 receptor, 130 nM.
The matching figures for `CC[C@@H](CO)Nc1nc(N)ncc1Oc1cc(Br)ncc1C(C)C` [Compound C209, (S)-2-((2-amino-5-((2-bromo-5-isopropylpyridin-4-yl)oxy)pyrimidin-4-yl)amino)but-1-ol]: 209 nM and 144 nM.
The matching figures for `C=C(C)c1cnc(OC)cc1Cc1cnc(N)nc1N` [Compound C196, 5-((2-methoxy-5-(prop-1-en-2-yl)pyridin-4-yl)methyl)pyrimidine-2,4-diamine]: 652 nM and 208 nM.
For `COc1cc(Oc2cnc(N)nc2N)c(C)cn1` [Compound C176, 5-((2-methoxy-5-methylpyridin-4-yl)oxy) pyrimidine-2,4-diamine], in that order: 984 nM and 611 nM.
As to `CC(C)c1cnc(Br)cc1Sc1cnc(N)nc1N` [Compound C85, 5-((2-bromo-5-isopropylpyridin-4-yl)thio)pyrimidine-2,4-diamine], the IC50 on human P2X2/3 receptor worked out at 205 nM; at human P2X3 receptor, 78 nM.
The matching figures for `CC(C)c1cnc(Br)cc1Oc1cnc(N)nc1NCCN(C)C` [Compound C71, 5-((2-bromo-5-isopropylpyridin-4-yl)oxy)-N^4-(2-(dimethylamino)ethyl)pyrimidine-2,4-diamine]: 67 nM and 72 nM.
The matching figures for `CC(C)c1cnc(C#Cc2ccccn2)cc1Oc1cnc(N)nc1N` [Compound C150, 5-((5-isopropyl-2-(pyridin-2-ylethynyl)pyridin-4-yl)oxy)pyrimidine-2,4-diamine]: 232 nM and 211 nM.
For `CC(C)c1cnc(Br)cc1Oc1cnc(N)nc1NCCN1CCOCC1` [Compound C203, 5-((2-bromo-5-isopropylpyridin-4-yl)oxy)-N^4-(2-morpholinoethyl) pyrimidine-2,4-diamine], the concentration for half-maximal inhibition (IC50) on human P2X2/3 receptor is 275 nM; at human P2X3 receptor it was 157 nM.
